From patent US4207330A, “Method for treating hyperglycemia in mammals using arylamino benzoic acids” (The Dow Chemical Company, priority 1979, dated 1980)
Like-named read-outs stand apart in the source and are kept apart here.

Tested on: serum glucose
Experiment: Hypoglycemic activity in alanine-induced mice (percent lowering of serum glucose; ED50)
Format: in vivo, male Swiss-Webster mice
Conditions: for ED50 / inhibition in vivo at 60 mg/kg: Mus musculus, ip, 1 h; for ED50: read-out: ED50 (amount required to obtain a 50% reduction in serum glucose as compared to the control animals); for inhibition in vivo at 60 mg/kg: 60 mg/kg intraperitoneal, 15 min before 10 mmol/kg L-alanine i.p., serum glucose 60 min after compound, 100% = lowering from alanine-induced level to fasted control level, read-out: % Lowering Blood Sugar
Experimental: Alanine is the most glucogenic of the amino acids and also stimulates gluconeogensis in normal animals. Animals suffering from diabetes show an exaggerated hyperglycemic response to a protein or amino acid meal, therefore the hyperglycemic state induced by alanine closely parallels the response of a diabetic mammal.
Fifteen minutes later the same mice were injected intrapertioneally with 10 m moles/kg body weight of L-alanine. Sixty minutes after injection of the active compound, the animals were sacrificed and their sera were analyzed for glucose. The control consisted of both fasted mice and mice injected with alanine. The results are expressed as percent lowering of serum glucose from the alanine induced hyperglycemic level to the fasted control glucose level, i.e. lowering to the fasting glucose level is 100% lowering.
The effective dose (ED50) of several of the subject compounds were determined.
*effective dose represents the amount of the active ingredient required t
obtain a 50% reduction in serum glucose as compared to the control

[1] = 50% reduction in serum glucose vs control animals

Row | SMILES | inhibition in vivo at 60 mg/kg | further results
1 | O=C(O)c1ccc(NCc2ccc(Cl)cc2)cc1.[Na] [Example 12, 4-(((4-chlorophenyl)methyl)amino)benzoic acid sodium] |  | ED50: 6 mg/kg
2 | O=C(O)c1ccc(NCc2cc(Cl)c(Cl)s2)cc1 [Example 14, 4-(((4,5-dichloro-2-thienyl)methyl)amino)benzoic acid] | 83% | 
3 | O=C(O)c1ccc(Nc2ccccc2)cc1 [Example 1, p-anilinobenzoic acid] | 88% | 
4 | O=C(O)c1ccc(NCc2ccc(C(F)(F)F)cc2)cc1 [Example 11, 4-(((4-(trifluoromethyl)phenyl)methyl)amino)benzoic] | 106% | 
5 | O=C(O)c1ccc(NCc2ccc(F)cc2)cc1 [Example 6, 4-(((4-fluorophenyl)methyl)amino)benzoic acid] | 110% | 
6 | O=C(O)c1ccc(NCc2ccc(Cl)cc2)cc1 [Example 3, 4-(((4-chlorophenyl)methyl)amino)benzoic acid] | 111% | ED50 [1]: 11 mg/kg
7 | CCc1ccc(CNc2ccc(C(=O)O)cc2)cc1 [Example 5, 4-(((4-ethylphenyl)methyl)amino)benzoic acid] | 96% | ED50 [1]: 15 mg/kg
8 | O=C(O)c1ccc(NCc2ccc(Br)s2)cc1 [Example 15, 4-(((5-bromo-2-thienyl)methyl)amino)benzoic acid] | 210% | ED50 [1]: 4.6 mg/kg; hypoglycemic activity at low dosage (in words) (mice, dosages as low as 7.5 mg per kg of body weight): significant hypoglycemic activity; hypoglycemic activity (in words) (mice, compounds tested): highest activity as a hypoglycemic agent of the compounds tested
9 | O=C(O)c1ccc(NCc2cccs2)cc1 [Example 8, 4-((2-thienylmethyl)amino)benzoic acid] | 51% | 
10 | O=C(O)c1ccc(NCCCc2ccccc2)cc1 [Example 10, 4-((3-phenylpropyl)amino)benzoic acid] | 99% | 
11 | CC(C)c1ccc(CNc2ccc(C(=O)O)cc2)cc1 [Example 2, 4-(((4-(1-methylethyl)phenyl)methyl)amino)benzoic acid] | 78% | 
12 | O=C(O)c1ccc(NCc2cccc(F)c2)cc1 [Example 13, 4-(((3-fluorophenyl)methyl)amino)benzoic acid] | 52% | 
13 | Cc1ccc(CNc2ccc(C(=O)O)cc2)cc1 [Example 4, 4-(((4-methylphenyl)methyl)amino)benzoic acid] | 144% | ED50 [1]: 15 mg/kg
14 | O=C(O)c1ccc(NCc2cccc(Cl)c2)cc1 [Example 9, 4-(((3-chlorophenyl)methyl)amino)benzoic acid] | 64% | 
15 | CCOC(=O)c1ccc(NCc2cccs2)cc1 [Example 7, 4-((2-thienylmethyl)amino)benzoic acid ethyl ester] | 78% | 
